The first assay concerns the target GDP-bound KRAS protein (aa 1-169), containing both G12C and C118A amino acid substitutions (Homo sapiens, UniProt P01116, C118A/G12C). Description: Coupled nucleotide exchange assay (SOS-mediated, AlphaScreen). The class given is biochemical. The settings on record: 5 min compound pre-incubation. Background: Bead proximity is the source of the signal in Alpha formats.
GDP-bound KRAS protein (aa 1-169), containing both G12C and C118A amino acid substitutions, sequence (P01116 1-169 isoform P01116-2 G12C/C118A): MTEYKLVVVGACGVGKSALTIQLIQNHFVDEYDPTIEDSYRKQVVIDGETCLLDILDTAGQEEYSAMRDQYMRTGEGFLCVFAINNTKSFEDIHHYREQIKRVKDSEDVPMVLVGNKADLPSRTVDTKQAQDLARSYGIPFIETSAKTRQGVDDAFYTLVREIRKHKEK
As for `C=CC(=O)N1CCN(c2nc(=O)n(-c3c(CC)cccc3CC)c3nc(N4CCOC[C@@H]4C)c(Cl)cc23)[C@@H](C)C1` [Example 66-30, 6-chloro-1-(2,6-diethylphenyl)-7-((3S)-3-methyl-4-morpholinyl)-4-((2S)-2-methyl-4-(2-propenoyl)-1-piperazinyl)pyrido[2,3-d]pyrimidin-2(1H)-one], the “Coupled exchange IC50 (5 min)” value was 16.05 | nda μM. Same read-out and setting: the same measure for `C=CC(=O)N1CCN(c2nc(=O)n(-c3c(CC)cccc3CC)c3nc(N4C[C@@H]5C[C@H]4CO5)c(Cl)cc23)[C@@H](C)C1` [Example 66-31, 6-chloro-1-(2,6-diethylphenyl)-4-((2S)-2-methyl-4-(2-propenoyl)-1-piperazinyl)-7-((1S,4S)-2-oxa-5-azabicyclo[2.2.1]heptan-5-yl)pyrido[2,3-d]pyrimidin-2(1H)-one]: 84.25 | nda μM. On the same count and under the same terms, the same measure for `C=CC(=O)N1CCN(c2nc(=O)n(-c3c(CC)cccc3CC)c3nc(N4CCOC[C@H]4C)c(Cl)cc23)[C@@H](C)C1` [Example 66-33, 6-chloro-1-(2,6-diethylphenyl)-7-((3R)-3-methyl-4-morpholinyl)-4-((2S)-2-methyl-4-(2-propenoyl)-1-piperazinyl)pyrido[2,3-d]pyrimidin-2(1H)-one]: 15.9 | nda μM. The same measure, in the same setting: the same measure for `C=CC(=O)N1CCN(c2nc(=O)n(-c3ccccc3C(C)C)c3nc(-c4ccncc4F)c(Cl)cc23)[C@@H](C)C1` [Example 67-1, 6-Chloro-7-(3-fluoro-4-pyridinyl)-4-((2S)-2-methyl-4-(2-propenoyl)-1-piperazinyl)-1-(2-(2-propanyl)phenyl)pyrido[2,3-d]pyrimidin-2(1H)-one]: 3.51 | nda μM.

As to `C=CC(=O)N1CCN(c2nc(=O)n(-c3ccccc3C(C)C)c3nc(-c4cc(C(F)(F)F)nn4C)c(Cl)cc23)[C@@H](C)C1` [Example 67-2, 6-chloro-4-((2S)-2-methyl-4-(2-propenoyl)-1-piperazinyl)-7-(1-methyl-3-(trifluoromethyl)-1H-pyrazol-5-yl)-1-(2-(2-propanyl)phenyl)pyrido[2,3-d]pyrimidin-2(1H)-one], the “Coupled exchange IC50 (5 min)” value is 6.45 | nda μM. As to `C=CC(=O)N1CCN(c2nc(=O)n(-c3ccccc3C(C)C)c3nc(-c4c(C)cnn4C)c(Cl)cc23)[C@@H](C)C1` [Example 67-3, 6-chloro-7-(1,4-dimethyl-1H-pyrazol-5-yl)-4-((2S)-2-methyl-4-(2-propenoyl)-1-piperazinyl)-1-(2-(2-propanyl)phenyl)pyrido[2,3-d]pyrimidin-2(1H)-one], the “Coupled exchange IC50 (5 min)” value is 2.87 | nda μM.

With `C=CC(=O)N1CCN(c2nc(=O)n(-c3ccccc3C(C)C)c3nc(N4CCCCC4C)c(Cl)cc23)[C@@H](C)C1` (stereo partly drawn) [Example 69-5], the “Coupled exchange IC50 (5 min)” value was 5.64 | nda μM.

Consider `C=CC(=O)N1CCN(c2nc(=O)n(-c3ccccc3C(C)C)c3nc(N(C)C(C)C)c(Cl)cc23)[C@@H](C)C1` [Example 69-6, 6-chloro-7-(methyl(2-propanyl)amino)-4-((2S)-2-methyl-4-(2-propenoyl)-1-piperazinyl)-1-(2-(2-propanyl)phenyl)pyrido[2,3-d]pyrimidin-2(1H)-one], for which the “Coupled exchange IC50 (5 min)” value is reported as 13.7 | nda μM. As to `C=CC(=O)N1CCN(c2nc(=O)n(-c3ccccc3C(C)C)c3nc(N(C)CCO)c(Cl)cc23)[C@@H](C)C1` [Example 69-7, 6-chloro-7-((2-hydroxyethyl)(methyl)amino)-4-((2S)-2-methyl-4-(2-propenoyl)-1-piperazinyl)-1-(2-(2-propanyl)phenyl)pyrido[2,3-d]pyrimidin-2(1H)-one], the “Coupled exchange IC50 (5 min)” value is listed as 48.5 | nda μM. Still for that read-out and setting: the same measure for `C=CC(=O)N1CCN(c2nc(=O)n(-c3c(C)cccc3C(C)C)c3nc(-c4nc(N)ccc4Cl)c(F)cc23)[C@@H](C)C1` [Example 71-1, 7-(6-Amino-3-chloro-2-pyridinyl)-6-fluoro-1-(2-methyl-6-(2-propanyl)phenyl)-4-((2S)-2-methyl-4-(2-propenoyl)-1-piperazinyl)pyrido[2,3-d]pyrimidin-2(1H)-one]: 1.12 | nda μM; for `C=CC(=O)N1CCN(c2nc(=O)c(-c3ccccc3C)c3cc(-c4ccccc4Br)c(C)nn23)CC1` [Example 81-1, 3-(2-Bromophenyl)-2-methyl-5-(2-methylphenyl)-8-(4-(2-propenoyl)-1-piperazinyl)-6H-pyrimido[1,6-b]pyridazin-6-one]: 172 | nda μM; for `C=CC(=O)N1CCN(c2nc(=O)c(-c3ccccc3C(C)C)c3cc(-c4ccccc4F)c(C)nn23)CC1` [Example 81-2, 3-(2-fluorophenyl)-2-methyl-5-(2-(2-propanyl)phenyl)-8-(4-(2-propenoyl)-1-piperazinyl)-6H-pyrimido[1,6-b]pyridazin-6-one]: 14.1 | nda μM. As to `C=CC(=O)N1CCN(c2nc(=O)c(-c3ccccc3C(C)C)c3cc(-c4ccccc4F)c(C)nn23)[C@@H](C)C1` [Example 81-3, 3-(2-fluorophenyl)-2-methyl-8-((2S)-2-methyl-4-(2-propenoyl)-1-piperazinyl)-5-(2-(2-propanyl)phenyl)-6H-pyrimido[1,6-b]pyridazin-6-one], the “Coupled exchange IC50 (5 min)” value is on record as 2.87 | nda μM. Same read-out and setting: the same measure for `C=CC(=O)N1C[C@@H](C)N(c2nc(=O)n(-c3c(C(C)C)ncnc3C(C)C)c3nc(-c4ccccc4F)c(Cl)cc23)[C@H](C)C1` [Example 87-3]: 17.3 | nda μM; for `C=CC(=O)N1CCN(c2nc(=O)n(-c3ccccc3C(F)(F)F)c3cc(-c4ccccc4F)c(Cl)cc23)[C@@H](C)C1` [Example 93, 6-Chloro-7-(2-fluorophenyl)-4-((2S)-2-methyl-4-(2-propenoyl)-1-piperazinyl)-1-(2-(trifluoromethyl)phenyl)-2(1H)-quinazolinone]: 1.59 | nda μM. The same measure, in the same setting: next, `C=CC(=O)N1CCN(c2nc(=O)n(-c3c(CC)cccc3CC)c3nc(-c4ccccc4F)c(Cl)cc23)[C@@H](C(=O)O)C1` [Example 96, (2R)-1-(6-Chloro-1-(2,6-diethylphenyl)-7-(2-fluorophenyl)-2-oxo-1,2-dihydropyrido[2,3-d]pyrimidin-4-yl)-4-(2-propenoyl)-2-piperazinecarboxylic acid]: 4.85 | nda μM; `C=CC(=O)N1CCN(c2nc(=O)n(-c3ccccc3)c3nc(-c4c(O)cccc4F)c(Cl)cc23)[C@@H](C)C1` [Example 100, 6-Chloro-7-(2-fluoro-6-hydroxyphenyl)-4-((2S)-2-methyl-4-(2-propenoyl)-1-piperazinyl)-1-phenylpyrido[2,3-d]pyrimidin-2(1H)-one]: 3.45 | nda μM; `C=CC(=O)N1CCN(c2nc(=O)n(-c3ccccc3C(C)C)c3nc(-c4ccccc4F)c(CC)nc23)[C@@H](C)C1` [Example 108, 6-Ethyl-7-(2-fluorophenyl)-4-((2S)-2-methyl-4-(2-propenoyl)-1-piperazinyl)-1-(2-(2-propanyl)phenyl)-2(1H)-pteridinone]: 1 | nda μM.

On to `C=CC(=O)N1CCN(c2nc(=O)n(-c3ccccc3C(C)C)c3nc(-c4ccccc4F)c(OC)nc23)[C@@H](C)C1` [Example 109, 7-(2-Fluorophenyl)-6-methoxy-4-((2S)-2-methyl-4-(2-propenoyl)-1-piperazinyl)-1-(2-(2-propanyl)phenyl)-2(1H)-pteridinone], for which the “Coupled exchange IC50 (5 min)” value is given as 1.32 | nda μM. Same read-out and setting: next, `C=CC(=O)N1CCN(c2nc(=O)[nH]c3nc(-c4c(O)cccc4F)c(Cl)cc23)[C@@H](C)C1` [Example 119, 6-Chloro-7-(2-fluoro-6-hydroxyphenyl)-4-((2S)-2-methyl-4-(2-propenoyl)-1-piperazinyl)pyrido[2,3-d]pyrimidin-2(1H)-one]: 10.8 | nda μM; `C=CC(=O)N1CCN(c2cc(=O)n(CC(C)(C)C)c3nc(-c4ccccc4F)ccc23)[C@@H](C)C1` [Example 120, 1-(2,2-Dimethylpropyl)-7-(2-fluorophenyl)-4-((2S)-2-methyl-4-(2-propenoyl)-1-piperazinyl)-1,8-naphthyridin-2(1H)-one]: 71.1 | nda μM. On the same count and under the same terms, next, `C=CC(=O)N1CCN(c2cc(=O)n(CC(C)(C)C)c3nc(-c4ccccc4F)c(Cl)cc23)[C@@H](C)C1` [Example 121, 6-chloro-1-(2,2-dimethylpropyl)-7-(2-fluorophenyl)-4-((2S)-2-methyl-4-(2-propenoyl)-1-piperazinyl)-1,8-naphthyridin-2(1H)-one]: 14.2 | nda μM; `C=CC(=O)N1CCN(c2cc(=O)n(CC(C)(C)C)c3nc(-c4ccccc4F)c(Cl)cc23)CC1` [Example 122, 6-Chloro-1-(2,2-dimethylpropyl)-7-(2-fluorophenyl)-4-(4-(2-propenoyl)-1-piperazinyl)-1,8-naphthyridin-2(1H)-one]: 5.29 | nda μM. Take `C=CC(=O)N1CCN(c2cc(=O)n(CC(C)(C)C)c3nc(-c4ccccc4F)ccc23)CC1` [Example 123, 1-(2,2-Dimethylpropyl)-7-(2-fluorophenyl)-4-(4-(2-propenoyl)-1-piperazinyl)-1,8-naphthyridin-2(1H)-one]: the “Coupled exchange IC50 (5 min)” value is given as 38.6 | nda μM.

The assay is the same for the next values; noted with them: 2 h compound pre-incubation.
As for `C=CC(=O)N1CCN(c2nc(=O)n(-c3c(CC)cccc3CC)c3nc(-c4c(O)cccc4F)ccc23)[C@@H](C)C1` [Example 107, 1-(2,6-Diethylphenyl)-7-(2-fluoro-6-hydroxyphenyl)-4-((2S)-2-methyl-4-(2-propenoyl)-1-piperazinyl)pyrido[2,3-d]pyrimidin-2(1H)-one], the “Coupled exchange IC50 (2 h)” value is “nda | 3.14 μM”.

The assay is the same for the next values; noted with them: read-out: Coupled exchange IC50 (5 min); 5 min compound pre-incubation.
Regarding `C=CC(=O)N1CCN(c2nc(CO)c(-c3ccccc3C(C)C)c3nc(-c4ccccc4F)c(Cl)cc23)CC1` [Example 85-1], the IC50 was determined as 6.34 µM. Consider `C=CC(=O)N1CCN(c2nc(=O)n(-c3ccccc3C(C)C)c3nc(-c4ccc[nH]c4=O)c(Cl)cc23)[C@@H](C)C1` [Example 97, 6-Chloro-4-((2S)-2-methyl-4-(2-propenoyl)-1-piperazinyl)-7-(2-oxo-1,2-dihydro-3-pyridinyl)-1-(2-(2-propanyl)phenyl)pyrido[2,3-d]pyrimidin-(1H)-one], for which the concentration for half-maximal inhibition (IC50) was found to be 39 µM.

As a reminder, the IC50 is the concentration needed to halve the response being measured.

These data come from patent US11090304B2 (Amgen Inc., priority 2018, dated 2021).
